The record followed here is US20210309666A1, “SMALL MOLECULE MDM2 PROTEIN DEGRADERS” (THE REGENTS OF THE UNIVERSITY OF MICHIGAN, priority 2018, published 2021).

This assay deals with RS4;11 cells. Description: Cell growth inhibition, 4-day proliferation assay (WST-8). Type of assay: cell-based. Conditions: Homo sapiens, 96 h; RS4;11 cells, 4 days, WST-8; read-out: RS4; 11 Cells IC50. As to the method: The effect of representative Compounds of the Disclosure on cell viability was determined in a 4-day proliferation assay. Cells were maintained in the appropriate culture medium with 10% FBS at 37° C. and an atmosphere of 5% CO2. Also, the effect of a MDM2 inhibitor (Cpd. A; see Compound Example No. 22 of U.S. Pat. No. 8,629,141) and a known MDM2 degrader (Cpd. D, see Cpd. No. 175 of WO 2017/0176957) on cell viability in various cell lines is also included in Table 5. Cpd. […] A and D. The structure of Cpd. A is:
Cells were seeded in 96-well flat bottom (Corning COSTAR, Corning, N.Y., cat #3595) at a density of 2,000-3,000 cells/well in 100 μL of culture medium. Compounds were serially diluted in the appropriate medium, and 100 μL of the diluted compounds were added to the appropriate wells of the cell plate. After the addition of compounds, the cells were incubated at 37° C. in an atmosphere of 5% CO2 for 4 days. Cell viability was determined using the WST (2-(2-methoxy-4-nitrophenyl)-3-(4-nitrophenyl)-5-(2,4-disulfophenyl)-2H-tetrazolium, monosodium salt) Cell Counting-8 Kit (Dojindo Molecular Technologies, Inc., Rockville, Md.) according to the manufacturers' instructions.
WST-8 reagent was added to each well at a final concentration of 10% (v/v), and then the plates were incubated at 37° C. for 1-2 hours for color development. The absorbance was measured at 450 nm using a SPECTRAmax PLUS plate reader (Molecular Devices, Sunnyvale, Calif.). The readings were normalized to the DMSO-treated cells and the half maximal inhibitory concentration (IC50) was calculated by nonlinear regression (four parameters sigmoid fitted with variable slope, least squares fit, and no constraint) analysis using the GraphPad Prism 5 software (GraphPad Software, La Jolla, Calif.).
(Tetrazolium dyes change colour on reduction, which living cells bring about.)

For `O=C1CCC(N2Cc3c(NC4CCN(CCCNC(=O)C56CCC(NC(=O)[C@@H]7NC8(CCCCC8)[C@@]8(C(=O)Nc9cc(Cl)ccc98)[C@H]7c7cccc(Cl)c7F)(CC5)CC6)CC4)cccc3C2=O)C(=O)N1` (stereo partly drawn) [Cpd. No. 1, (3′R,4′S,5′R)-6″-chloro-4′-(3-chloro-2-fluorophenyl)-N-(4-((3-(4-((2-(2,6-dioxopiperidin-3-yl)-1-oxoisoindolin-4-yl)amino)piperidin-1-yl)propyl)carbamoyl)bicyclo[2.2.2]octan-1-yl)-2″-oxodispiro[cyclohexane-1,2′-pyrrolidine-3′,3″-indoline]-5′-carboxamide], the IC50 was found to be 2.4 nM.

Turning to `CC(C)(C)C[C@@H]1N[C@@H](C(=O)N[C@H]2CC[C@H](C(=O)NCCCC#Cc3cccc4c3CN(C3CCC(=O)NC3=O)C4=O)CC2)[C@H](c2cccc(Cl)c2F)[C@]12C(=O)Nc1cc(Cl)ccc12` (stereo partly drawn) [Cpd. No. 3, (2′S,3R,4′S,5′R)-6-chloro-4′-(3-chloro-2-fluorophenyl)-N-((1r,4R)-4-((5-(2-(2,6-dioxopiperidin-3-yl)-1-oxoisoindolin-4-yl)pent-4-yn-1-yl)carbamoyl)cyclohexyl)-2′-neopentyl-2-oxospiro[indoline-3,3′-pyrrolidine]-5′-carboxamide], the IC50 came out at 0.62 nM.

Turning to `O=C1CCC(N2Cc3c(C#CC4CCN(C(=O)CN5CCC(NC(=O)[C@@H]6NC7(CCCCC7)[C@@]7(C(=O)Nc8cc(Cl)ccc87)[C@H]6c6cccc(Cl)c6F)CC5)CC4)cccc3C2=O)C(=O)N1` (stereo partly drawn) [Cpd. No. 5, (3′R,4′S,5′R)-6″-chloro-4′-(3-chloro-2-fluorophenyl)-N-(1-(2-(4-((2-(2,6-dioxopiperidin-3-yl)-1-oxoisoindolin-4-yl)ethynyl)piperidin-1-yl)-2-oxoethyl)piperidin-4-yl)-2″-oxodispiro[cyclohexane-1,2′-pyrrolidine-3′,3″-indoline]-5′-carboxamide], the IC50 is 3.1 nM.

Consider `O=C1CCC(N2Cc3c(C#CC4CCN(C(=O)CN5CCN(C(=O)[C@@H]6NC7(CCCCC7)[C@@]7(C(=O)Nc8cc(Cl)ccc87)[C@H]6c6cccc(Cl)c6F)CC5)CC4)cccc3C2=O)C(=O)N1` (stereo partly drawn) [Cpd. No. 7, 3-(4-((1-(2-(4-((3′R,4′S,5′R)-6″-chloro-4′-(3-chloro-2-fluorophenyl)-2″-oxodispiro[cyclohexane-1,2′-pyrrolidine-3′,3″-indoline]-5′-carbonyl)piperazin-1-yl)acetyl)piperidin-4-yl)ethynyl)-1-oxoisoindolin-2-yl)piperidine-2,6-dione], for which the IC50 is more than 100 nM.

In the case of `CC1(C)CCC2(CC1)N[C@@H](C(=O)NC1CCN(CC(=O)NCCCC#Cc3cccc4c3CN(C3CCC(=O)NC3=O)C4=O)CC1)[C@H](c1cccc(Cl)c1F)[C@]21C(=O)Nc2cc(Cl)ccc21` (stereo partly drawn) [Cpd. No. 8, (3′R,4′S,5′R)-6″-chloro-4′-(3-chloro-2-fluorophenyl)-N-(1-(2-((5-(2-(2,6-dioxopiperidin-3-yl)-1-oxoisoindolin-4-yl)pent-4-yn-1-yl)amino)-2-oxoethyl)piperidin-4-yl)-4,4-dimethyl-2″-oxodispiro[cyclohexane-1,2′-pyrrolidine-3′,3″-indoline]-5′-carboxamide], the IC50 came out at 4.5 nM.

In the case of `CN1[C@@H](C(=O)N[C@H]2CC[C@H](C(=O)N3CCC(C#Cc4cccc5c4CN(C4CCC(=O)NC4=O)C5=O)CC3)CC2)[C@H](c2cccc(Cl)c2F)[C@]2(C(=O)Nc3cc(Cl)ccc32)C12CCCCC2` (stereo partly drawn) [Cpd. No. 9, (3′R,4′S,5′R)-6″-chloro-4′-(3-chloro-2-fluorophenyl)-N-((1r,4R)-4-(4-((2-(2,6-dioxopiperidin-3-yl)-1-oxoisoindolin-4-yl)ethynyl)piperidine-1-carbonyl)cyclohexyl)-1′-methyl-2″-oxodispiro[cyclohexane-1,2′-pyrrolidine-3′,3″-indoline]-5′-carboxamide], the IC50 stood at 2.8 nM.

`CN1[C@@H](C(=O)NC23CCC(C(=O)N4CCC(C#Cc5cccc6c5CN(C5CCC(=O)NC5=O)C6=O)CC4)(CC2)CC3)[C@H](c2cccc(Cl)c2F)[C@]2(C(=O)Nc3cc(Cl)ccc32)C12CCCCC2` (stereo partly drawn) [Cpd. No. 10, (3′R,4′S,5′R)-6″-chloro-4′-(3-chloro-2-fluorophenyl)-N-(4-(4-((2-(2,6-dioxopiperidin-3-yl)-1-oxoisoindolin-4-yl)ethynyl)piperidine-1-carbonyl)bicyclo[2.2.2]octan-1-yl)-1 ′-methyl-2″-oxodispiro[cyclohexane-1,2′-pyrrolidine-3′,3″-indoline]-5′-carboxamide]: the IC50 is 8 nM.

Regarding `O=C1CCC(N2Cc3c(C#CC4CCN(C(=O)C56CC(NC(=O)[C@@H]7NC8(CCCCC8)[C@@]8(C(=O)Nc9cc(Cl)ccc98)[C@H]7c7cccc(Cl)c7F)(C5)C6)CC4)cccc3C2=O)C(=O)N1` (stereo partly drawn) [Cpd. No. 11, (3′R,4′S,5′R)-6″-chloro-4′-(3-chloro-2-fluorophenyl)-N-(3-(4-((2-(2,6-dioxopiperidin-3-yl)-1-oxoisoindolin-4-yl)ethynyl)piperidine-1-carbonyl)bicyclo[1.1.1]pentan-1-yl)-2″-oxodispiro[cyclohexane-1,2′-pyrrolidine-3′,3″-indoline]-5′-carboxamide], the IC50 is 0.3 nM.

On to `O=C1CCC(N2Cc3c(C#CC4CCN(C(=O)[C@H]5C[C@H](NC(=O)[C@@H]6NC7(CCCCC7)[C@@]7(C(=O)Nc8cc(Cl)ccc87)[C@H]6c6cccc(Cl)c6F)C5)CC4)cccc3C2=O)C(=O)N1` (stereo partly drawn) [Cpd. No. 12, (3′R,4′S,5′R)-6″-chloro-4′-(3-chloro-2-fluorophenyl)-N-((1r,3R)-3-(4-((2-(2,6-dioxopiperidin-3-yl)-1-oxoisoindolin-4-yl)ethynyl)piperidine-1-carbonyl)cyclobutyl)-2″-oxodispiro[cyclohexane-1,2′-pyrrolidine-3′,3″-indoline]-5′-carboxamide], for which the IC50 stood at 1.4 nM.

Regarding `CC1(C)CCC2(CC1)N[C@@H](C(=O)NC13CCC(C(=O)N4CCC(C#Cc5cccc6c5CN(C5CCC(=O)NC5=O)C6=O)CC4)(CC1)CC3)[C@H](c1cccc(Cl)c1F)[C@]21C(=O)Nc2cc(Cl)ccc21` (stereo partly drawn) [Cpd. No. 13, (3′R,4′S,5′R)-6″-chloro-4′-(3-chloro-2-fluorophenyl)-N-(4-(4-((2-(2,6-dioxopiperidin-3-yl)-1-oxoisoindolin-4-yl)ethynyl)piperidine-1-carbonyl)bicyclo[2.2.2]octan-1-yl)-4,4-dimethyl-2″-oxodispiro[cyclohexane-1,2′-pyrrolidine-3′,3″-indoline]-5′-], the IC50 is 6 nM.

On to `CN(C(=O)[C@@H]1NC2(CCCCC2)[C@@]2(C(=O)Nc3cc(Cl)ccc32)[C@H]1c1cccc(Cl)c1F)[C@H]1CC[C@H](C(=O)N2CCC(C#Cc3cccc4c3CN(C3CCC(=O)NC3=O)C4=O)CC2)CC1` (stereo partly drawn) [Cpd. No. 15, (3′R,4′S,5′R)-6″-chloro-4′-(3-chloro-2-fluorophenyl)-N-((1r,4R)-4-(4-((2-(2,6-dioxopiperidin-3-yl)-1-oxoisoindolin-4-yl)ethynyl)piperidine-1-carbonyl)cyclohexyl)-N-methyl-2″-oxodispiro[cyclohexane-1,2′-pyrrolidine-3′,3″-indoline]-5′-carboxamide], for which the IC50 was 60 nM.

Consider `CN1[C@@H](C(=O)N(C)[C@H]2CC[C@H](C(=O)N3CCC(C#Cc4cccc5c4CN(C4CCC(=O)NC4=O)C5=O)CC3)CC2)[C@H](c2cccc(Cl)c2F)[C@]2(C(=O)Nc3cc(Cl)ccc32)C12CCCCC2` (stereo partly drawn) [Cpd. No. 16, (3′R,4′S,5′R)-6″-chloro-4′-(3-chloro-2-fluorophenyl)-N-((1r,4R)-4-(4-((2-(2,6-dioxopiperidin-3-yl)-1-oxoisoindolin-4-yl)ethynyl)piperidine-1-carbonyl)cyclohexyl)-N,1′-dimethyl-2″-oxodispiro[cyclohexane-1,2′-pyrrolidine-3′,3″-indoline]-5′-carboxamide], for which the IC50 is more than 100 nM.

As for `CCN1[C@@H](C(=O)N2CCC(C(=O)N3CCC(C#Cc4cccc5c4CN(C4CCC(=O)NC4=O)C5=O)CC3)CC2)[C@H](c2cccc(Cl)c2F)[C@]2(C(=O)Nc3cc(Cl)ccc32)C12CCCCC2` (stereo partly drawn) [Cpd. No. 22, 3-(4-((1-(1-((3′R,4′S,5′R)-6″-chloro-4′-(3-chloro-2-fluorophenyl)-1′-ethyl-2″-oxodispiro[cyclohexane-1,2′-pyrrolidine-3′,3″-indoline]-5′-carbonyl)piperidine-4-carbonyl)piperidin-4-yl)ethynyl)-1-oxoisoindolin-2-yl)piperidine-2,6-dione], the IC50 is more than 100 nM.

Take `O=C1CCC(N2Cc3c(C#CC4CCN(C(=O)C5CCN(C(=O)[C@@H]6NC7(CCCCC7)[C@@]7(C(=O)Nc8cc(Cl)ccc87)[C@H]6c6cccc(Cl)c6F)CC5)CC4)cccc3C2=O)C(=O)N1` (stereo partly drawn) [Cpd. No. 23, 3-(4-((1-(1-((3′R,4′S,5′R)-6″-chloro-4′-(3-chloro-2-fluorophenyl)-2″-oxodispiro[cyclohexane-1,2′-pyrrolidine-3′,3″-indoline]-5′-carbonyl)piperidine-4-carbonyl)piperidin-4-yl)ethynyl)-1-oxoisoindolin-2-yl)piperidine-2,6-dione]: the IC50 was more than 100 nM.
